Assay results reported in PubChem BioAssay (NCI).
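Assay format: 96-well plates, 48-hour exposure. TGI denotes the concentration required for complete inhibition of growth.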

Assays:
Test in all cases: NCI-60 cell line screen, 48 h
SNB-75 CNS = tested on: SNB-75 CNS
MALME-3M melanoma = tested on: MALME-3M melanoma
PC-3 prostate = tested on: PC-3 prostate
M14 melanoma = tested on: M14 melanoma
SF-539 CNS = tested on: SF-539 CNS
HCT-15 colon = tested on: HCT-15 colon
RXF 393 renal = tested on: RXF 393 renal
HT29 colon = tested on: HT29 colon
MDA-MB-435 = tested on: MDA-MB-435
HL-60(TB) leukemia = tested on: HL-60(TB) leukemia
SNB-19 CNS = tested on: SNB-19 CNS
TK-10 renal = tested on: TK-10 renal
SF-295 CNS = tested on: SF-295 CNS
COLO 205 colon = tested on: COLO 205 colon
OVCAR-5 ovarian = tested on: OVCAR-5 ovarian
DU-145 prostate = tested on: DU-145 prostate
K-562 leukemia = tested on: K-562 leukemia
MDA-MB-231 breast = tested on: MDA-MB-231 breast
RPMI-8226 leukemia = tested on: RPMI-8226 leukemia
NCI-H460 lung = tested on: NCI-H460 lung
SN12C renal = tested on: SN12C renal
SR leukemia = tested on: SR leukemia
KM12 colon = tested on: KM12 colon
HOP-92 NSCLC = tested on: HOP-92 NSCLC
OVCAR-4 ovarian = tested on: OVCAR-4 ovarian
SF-268 CNS = tested on: SF-268 CNS
HOP-62 NSCLC = tested on: HOP-62 NSCLC
A549 NSCLC = tested on: A549 NSCLC
UACC-62 melanoma = tested on: UACC-62 melanoma
SK-MEL-28 melanoma = tested on: SK-MEL-28 melanoma
T-47D breast = tested on: T-47D breast
CCRF-CEM leukemia = tested on: CCRF-CEM leukemia
U251 CNS = tested on: U251 CNS
SK-MEL-5 melanoma = tested on: SK-MEL-5 melanoma
MDA-N = tested on: MDA-N
BT-549 breast = tested on: BT-549 breast
EKVX NSCLC = tested on: EKVX NSCLC
SW-620 colon = tested on: SW-620 colon
HS 578T breast = tested on: HS 578T breast
OVCAR-3 ovarian = tested on: OVCAR-3 ovarian
MCF7 breast = tested on: MCF7 breast
786-0 renal = tested on: 786-0 renal
HCC-2998 colon = tested on: HCC-2998 colon
IGROV1 ovarian = tested on: IGROV1 ovarian
HCT-116 colon = tested on: HCT-116 colon
MOLT-4 leukemia = tested on: MOLT-4 leukemia
NCI/ADR-RES ovarian = tested on: NCI/ADR-RES ovarian
LOX IMVI melanoma = tested on: LOX IMVI melanoma
NCI-H23 lung = tested on: NCI-H23 lung
UACC-257 melanoma = tested on: UACC-257 melanoma
OVCAR-8 ovarian = tested on: OVCAR-8 ovarian
SK-OV-3 ovarian = tested on: SK-OV-3 ovarian
NCI-H226 lung = tested on: NCI-H226 lung
ACHN renal = tested on: ACHN renal
NCI-H522 lung = tested on: NCI-H522 lung
UO-31 renal = tested on: UO-31 renal
CAKI-1 renal = tested on: CAKI-1 renal
A498 renal = tested on: A498 renal
SK-MEL-2 melanoma = tested on: SK-MEL-2 melanoma

C=C(C)CNC(=S)N(N)c1ccc2ccccc2c1
TGI (SNB-75 CNS): > 100 µM
TGI (MALME-3M melanoma): > 100 µM
TGI (PC-3 prostate): > 100 µM
TGI (M14 melanoma): > 100 µM
TGI (SF-539 CNS): > 100 µM
TGI (HCT-15 colon): 28.7 µM
TGI (RXF 393 renal): > 100 µM
TGI (HT29 colon): > 100 µM
TGI (MDA-MB-435): > 100 µM
TGI (HL-60(TB) leukemia): > 100 µM
TGI (SNB-19 CNS): > 100 µM
TGI (TK-10 renal): 71.4 µM
TGI (SF-295 CNS): > 100 µM
TGI (COLO 205 colon): > 100 µM
TGI (OVCAR-5 ovarian): 77.4 µM
TGI (DU-145 prostate): > 100 µM
TGI (K-562 leukemia): > 100 µM
TGI (MDA-MB-231 breast): > 100 µM
TGI (RPMI-8226 leukemia): > 100 µM
TGI (NCI-H460 lung): > 100 µM
TGI (SN12C renal): > 100 µM
TGI (SR leukemia): > 100 µM
TGI (KM12 colon): 62.4 µM
TGI (HOP-92 NSCLC): > 100 µM
TGI (OVCAR-4 ovarian): > 100 µM
TGI (SF-268 CNS): > 100 µM
TGI (HOP-62 NSCLC): > 100 µM
TGI (A549 NSCLC): > 100 µM
TGI (UACC-62 melanoma): 76.8 µM
TGI (SK-MEL-28 melanoma): > 100 µM
TGI (T-47D breast): > 100 µM
TGI (CCRF-CEM leukemia): > 100 µM
TGI (U251 CNS): > 100 µM
TGI (SK-MEL-5 melanoma): > 100 µM
TGI (MDA-N): > 100 µM
TGI (BT-549 breast): > 100 µM
TGI (EKVX NSCLC): 88.9 µM
TGI (SW-620 colon): > 100 µM
TGI (HS 578T breast): > 100 µM
TGI (OVCAR-3 ovarian): > 100 µM
TGI (MCF7 breast): > 100 µM
TGI (786-0 renal): > 100 µM
TGI (HCC-2998 colon): > 100 µM
TGI (IGROV1 ovarian): > 100 µM
TGI (HCT-116 colon): > 100 µM
TGI (MOLT-4 leukemia): > 100 µM
TGI (NCI/ADR-RES ovarian): > 100 µM
TGI (LOX IMVI melanoma): > 100 µM
TGI (NCI-H23 lung): > 100 µM
TGI (UACC-257 melanoma): > 100 µM
TGI (OVCAR-8 ovarian): > 100 µM
TGI (SK-OV-3 ovarian): > 100 µM
TGI (NCI-H226 lung): > 100 µM
TGI (ACHN renal): > 100 µM
TGI (NCI-H522 lung): > 100 µM
TGI (UO-31 renal): > 100 µM

O=C(O)Cn1cc([N+](=O)[O-])c(=O)c2ccccc21
TGI (SNB-75 CNS): > 100 µM
TGI (MALME-3M melanoma): > 100 µM
TGI (CAKI-1 renal): > 100 µM
TGI (PC-3 prostate): > 100 µM
TGI (M14 melanoma): > 100 µM
TGI (SF-539 CNS): > 100 µM
TGI (HCT-15 colon): > 100 µM
TGI (HT29 colon): > 100 µM
TGI (MDA-MB-435): > 100 µM
TGI (HL-60(TB) leukemia): > 100 µM
TGI (SNB-19 CNS): > 100 µM
TGI (TK-10 renal): > 100 µM
TGI (SF-295 CNS): > 100 µM
TGI (COLO 205 colon): 33.7 µM
TGI (OVCAR-5 ovarian): > 100 µM
TGI (DU-145 prostate): > 100 µM
TGI (K-562 leukemia): > 100 µM
TGI (MDA-MB-231 breast): 32.9 µM
TGI (NCI-H460 lung): > 100 µM
TGI (SN12C renal): > 100 µM
TGI (SR leukemia): > 100 µM
TGI (KM12 colon): > 100 µM
TGI (SF-268 CNS): > 100 µM
TGI (HOP-62 NSCLC): > 100 µM
TGI (A549 NSCLC): > 100 µM
TGI (UACC-62 melanoma): > 100 µM
TGI (SK-MEL-28 melanoma): > 100 µM
TGI (T-47D breast): 32.8 µM
TGI (CCRF-CEM leukemia): > 100 µM
TGI (U251 CNS): > 100 µM
TGI (SK-MEL-5 melanoma): > 100 µM
TGI (MDA-N): > 100 µM
TGI (A498 renal): > 100 µM
TGI (BT-549 breast): > 100 µM
TGI (SW-620 colon): > 100 µM
TGI (HS 578T breast): > 100 µM
TGI (OVCAR-3 ovarian): > 100 µM
TGI (MCF7 breast): > 100 µM
TGI (786-0 renal): > 100 µM
TGI (HCC-2998 colon): > 100 µM
TGI (IGROV1 ovarian): > 100 µM
TGI (HCT-116 colon): > 100 µM
TGI (MOLT-4 leukemia): > 100 µM
TGI (NCI/ADR-RES ovarian): > 100 µM
TGI (SK-MEL-2 melanoma): > 100 µM
TGI (NCI-H23 lung): > 100 µM
TGI (UACC-257 melanoma): > 100 µM
TGI (OVCAR-8 ovarian): > 100 µM
TGI (SK-OV-3 ovarian): > 100 µM
TGI (NCI-H226 lung): > 100 µM
TGI (ACHN renal): > 100 µM
TGI (NCI-H522 lung): > 100 µM
TGI (UO-31 renal): > 100 µM
